Results taken from PubChem BioAssay (NCI).
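Cultured in 96-well plates, cells were exposed to test compound for 48 hours across five concentrations. TGI: concentration producing complete growth inhibition.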

Experiments:
Test in all cases: DTP human tumour cell line panel, 48 h
[1] = test system: K-562 leukemia
[2] = test system: HCC-2998 colon
[3] = test system: KM12 colon
[4] = test system: HOP-18 NSCLC
[5] = test system: NCI-H522 lung
[6] = test system: SK-OV-3 ovarian
[7] = test system: SF-295 CNS
[8] = test system: SK-MEL-2 melanoma
[9] = test system: SW-620 colon
[10] = test system: MALME-3M melanoma
[11] = test system: COLO 205 colon
[12] = test system: KM20L2 colon
[13] = test system: HCT-116 colon
[14] = test system: SR leukemia
[15] = test system: NCI-H460 lung
[16] = test system: ACHN renal
[17] = test system: SNB-75 CNS
[18] = test system: M14 melanoma
[19] = test system: RXF 393 renal
[20] = test system: NCI-H226 lung
[21] = test system: OVCAR-8 ovarian
[22] = test system: OVCAR-3 ovarian
[23] = test system: DMS 114 small cell lung
[24] = test system: DMS 273 small cell lung
[25] = test system: OVCAR-4 ovarian
[26] = test system: A549 NSCLC
[27] = test system: OVCAR-5 ovarian
[28] = test system: LOX IMVI melanoma
[29] = test system: NCI-H23 lung
[30] = test system: CCRF-CEM leukemia
[31] = test system: M19-MEL melanoma
[32] = test system: LXFL 529 NSCLC
[33] = test system: SN12C renal
[34] = test system: RPMI-8226 leukemia
[35] = test system: HT29 colon
[36] = test system: SF-268 CNS
[37] = test system: UACC-62 melanoma
[38] = test system: HOP-62 NSCLC
[39] = test system: HOP-92 NSCLC
[40] = test system: SF-539 CNS
[41] = test system: SNB-19 CNS
[42] = test system: UACC-257 melanoma
[43] = test system: SK-MEL-28 melanoma
[44] = test system: IGROV1 ovarian
[45] = test system: U251 CNS
[46] = test system: HCT-15 colon
[47] = test system: MOLT-4 leukemia
[48] = test system: SNB-78 CNS
[49] = test system: TK-10 renal
[50] = test system: 786-0 renal
[51] = test system: HL-60(TB) leukemia
[52] = test system: DLD-1 colon
[53] = test system: SK-MEL-5 melanoma
[54] = test system: CAKI-1 renal
[55] = test system: XF 498 CNS
[56] = test system: EKVX NSCLC
[57] = test system: UO-31 renal
[58] = test system: A498 renal

Structure (SMILES): O=C(/C=C/c1ccc(OCCCOc2ccc(/C=C/C(=O)c3ccc(Cl)cc3)cc2)cc1)c1ccc(Cl)cc1
- TGI [1]: > 100 µM
- TGI [2]: > 100 µM
- TGI [3]: > 100 µM
- TGI [4]: > 100 µM
- TGI [5]: > 100 µM
- TGI [6]: > 100 µM
- TGI [7]: > 100 µM
- TGI [8]: > 100 µM
- TGI [9]: > 100 µM
- TGI [10]: > 100 µM
- TGI [11]: > 100 µM
- TGI [12]: > 100 µM
- TGI [13]: > 100 µM
- TGI [14]: > 100 µM
- TGI [15]: > 100 µM
- TGI [16]: > 100 µM
- TGI [17]: > 100 µM
- TGI [18]: > 100 µM
- TGI [19]: > 100 µM
- TGI [20]: > 100 µM
- TGI [21]: > 100 µM
- TGI [22]: > 100 µM
- TGI [23]: > 100 µM
- TGI [24]: > 100 µM
- TGI [25]: > 100 µM
- TGI [26]: > 100 µM
- TGI [27]: > 100 µM
- TGI [28]: > 100 µM
- TGI [29]: > 100 µM
- TGI [30]: > 100 µM
- TGI [31]: > 100 µM
- TGI [32]: > 100 µM
- TGI [33]: > 100 µM
- TGI [34]: > 100 µM
- TGI [35]: > 100 µM
- TGI [36]: > 100 µM
- TGI [37]: > 100 µM
- TGI [38]: > 100 µM
- TGI [39]: > 100 µM
- TGI [40]: > 100 µM
- TGI [41]: > 100 µM
- TGI [42]: > 100 µM
- TGI [43]: > 100 µM
- TGI [44]: > 100 µM
- TGI [45]: > 100 µM
- TGI [46]: > 100 µM
- TGI [47]: > 100 µM
- TGI [48]: > 100 µM
- TGI [49]: > 100 µM
- TGI [50]: > 100 µM
- TGI [51]: > 100 µM
- TGI [52]: > 100 µM
- TGI [53]: > 100 µM
- TGI [54]: > 100 µM
- TGI [55]: > 100 µM
- TGI [56]: > 100 µM

Structure (SMILES): COc1cc2ccc(C(=O)O)cc2cc1OC
- TGI [1]: > 100 µM
- TGI [3]: > 100 µM
- TGI [4]: > 100 µM
- TGI [57]: > 100 µM
- TGI [5]: > 100 µM
- TGI [6]: > 100 µM
- TGI [7]: > 100 µM
- TGI [8]: > 100 µM
- TGI [9]: > 100 µM
- TGI [10]: > 100 µM
- TGI [11]: > 100 µM
- TGI [12]: > 100 µM
- TGI [13]: > 100 µM
- TGI [15]: > 100 µM
- TGI [16]: > 100 µM
- TGI [58]: > 100 µM
- TGI [17]: > 100 µM
- TGI [18]: > 100 µM
- TGI [19]: > 100 µM
- TGI [20]: > 100 µM
- TGI [21]: > 100 µM
- TGI [22]: > 100 µM
- TGI [24]: > 100 µM
- TGI [25]: > 100 µM
- TGI [26]: > 100 µM
- TGI [27]: > 100 µM
- TGI [28]: > 100 µM
- TGI [29]: > 100 µM
- TGI [30]: > 100 µM
- TGI [31]: > 100 µM
- TGI [32]: > 100 µM
- TGI [33]: > 100 µM
- TGI [34]: > 100 µM
- TGI [35]: > 100 µM
- TGI [36]: > 100 µM
- TGI [37]: > 100 µM
- TGI [38]: > 100 µM
- TGI [39]: > 100 µM
- TGI [40]: > 100 µM
- TGI [41]: > 100 µM
- TGI [42]: > 100 µM
- TGI [43]: > 100 µM
- TGI [44]: > 100 µM
- TGI [45]: > 100 µM
- TGI [46]: > 100 µM
- TGI [47]: > 100 µM
- TGI [48]: > 100 µM
- TGI [49]: > 100 µM
- TGI [50]: > 100 µM
- TGI [53]: > 100 µM
- TGI [55]: > 100 µM
- TGI [56]: > 100 µM

Structure (SMILES): C/C(=N/OCCC(=O)O)C1CC1
- TGI [1]: > 100 µM
- TGI [2]: > 100 µM
- TGI [3]: > 100 µM
- TGI [4]: > 100 µM
- TGI [57]: > 100 µM
- TGI [5]: > 100 µM
- TGI [6]: > 100 µM
- TGI [7]: > 100 µM
- TGI [8]: > 100 µM
- TGI [9]: > 100 µM
- TGI [10]: > 100 µM
- TGI [11]: > 100 µM
- TGI [12]: > 100 µM
- TGI [13]: > 100 µM
- TGI [14]: > 100 µM
- TGI [15]: > 100 µM
- TGI [16]: > 100 µM
- TGI [17]: > 100 µM
- TGI [18]: > 100 µM
- TGI [19]: > 100 µM
- TGI [20]: > 100 µM
- TGI [21]: > 100 µM
- TGI [22]: > 100 µM
- TGI [23]: > 100 µM
- TGI [24]: > 100 µM
- TGI [25]: > 100 µM
- TGI [26]: > 100 µM
- TGI [28]: > 100 µM
- TGI [29]: > 100 µM
- TGI [30]: > 100 µM
- TGI [31]: > 100 µM
- TGI [32]: > 100 µM
- TGI [33]: > 100 µM
- TGI [34]: > 100 µM
- TGI [35]: > 100 µM
- TGI [36]: > 100 µM
- TGI [37]: > 100 µM
- TGI [38]: > 100 µM
- TGI [39]: > 100 µM
- TGI [40]: > 100 µM
- TGI [41]: > 100 µM
- TGI [43]: > 100 µM
- TGI [44]: > 100 µM
- TGI [45]: > 100 µM
- TGI [46]: > 100 µM
- TGI [48]: > 100 µM
- TGI [49]: > 100 µM
- TGI [50]: > 100 µM
- TGI [51]: > 100 µM
- TGI [52]: > 100 µM
- TGI [53]: > 100 µM
- TGI [54]: > 100 µM
- TGI [55]: > 100 µM
- TGI [56]: > 100 µM

Structure (SMILES): O=[P+](O)c1cc2c3ccccc3ccc2c2ccccc12
- TGI [1]: > 100 µM
- TGI [2]: > 100 µM
- TGI [3]: > 100 µM
- TGI [4]: > 100 µM
- TGI [5]: > 100 µM
- TGI [6]: > 100 µM
- TGI [7]: > 100 µM
- TGI [9]: > 100 µM
- TGI [11]: > 100 µM
- TGI [12]: > 100 µM
- TGI [13]: > 100 µM
- TGI [15]: > 100 µM
- TGI [17]: > 100 µM
- TGI [18]: > 100 µM
- TGI [19]: > 100 µM
- TGI [20]: 94.2 µM
- TGI [21]: > 100 µM
- TGI [22]: > 100 µM
- TGI [23]: > 100 µM
- TGI [24]: > 100 µM
- TGI [25]: > 100 µM
- TGI [26]: > 100 µM
- TGI [28]: > 100 µM
- TGI [29]: > 100 µM
- TGI [30]: > 100 µM
- TGI [31]: > 100 µM
- TGI [32]: > 100 µM
- TGI [33]: > 100 µM
- TGI [34]: > 100 µM
- TGI [35]: > 100 µM
- TGI [36]: > 100 µM
- TGI [37]: > 100 µM
- TGI [38]: > 100 µM
- TGI [40]: > 100 µM
- TGI [41]: > 100 µM
- TGI [43]: > 100 µM
- TGI [44]: > 100 µM
- TGI [45]: > 100 µM
- TGI [47]: > 100 µM
- TGI [48]: > 100 µM
- TGI [49]: > 100 µM
- TGI [50]: > 100 µM
- TGI [51]: > 100 µM
- TGI [52]: > 100 µM
- TGI [53]: > 100 µM
- TGI [55]: > 100 µM
- TGI [56]: > 100 µM
